Measurements as given in PMC10962542, “Inhibition of Aurora‐A/N‐Myc Protein–Protein Interaction Using Peptidomimetics: Understanding the Role of Peptide Cyclization” (Chembiochem, 2023).
Read-outs that look alike come from different tables or passages of the source. *1 amine or outer side, *2 acyl side, *3 side chain or, on linkers, in order; H or OH if unused. Where a SMILES comes first, the peptide text is derived from it. Bridges are numbered along the chain shown (N, C = ends). Maleimide(3,4-diyl) = O=C1NC(=O)C([*:2])=C1[*:1]

Experiments:
[1] = target: T1, N‐Myc/Aurora‐A interaction (Aurora‐A122‐403‐C290A/C393A) (Homo sapiens, UniProt O14965, C290A/C393A); assay: competition fluorescence anisotropy (FA) assay against fluorescein labelled N‐Myc61‐89; format: binding; note: equilibrated 2 h at room temperature
T1 construct: Aurora‐A 122‐403‐C290A/C393A protein was produced as described previously; made in house
T1 sequence (O14965 122-403 C290A/C393A): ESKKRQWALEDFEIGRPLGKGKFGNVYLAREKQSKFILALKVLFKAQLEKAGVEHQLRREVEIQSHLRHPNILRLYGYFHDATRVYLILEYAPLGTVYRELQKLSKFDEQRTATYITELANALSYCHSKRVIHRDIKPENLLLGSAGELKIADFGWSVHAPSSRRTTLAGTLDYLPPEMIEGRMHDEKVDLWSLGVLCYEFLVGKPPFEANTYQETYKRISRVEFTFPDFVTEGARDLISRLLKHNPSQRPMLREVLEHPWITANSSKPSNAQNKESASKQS
Procedure: Fluorescence anisotropy (FA) assays: All assays were performed using 384‐well plates (Greiner Bio‐one, UK). […] All samples were prepared in 25 mM Tris, 150 mM NaCl, 5 mM MgCl2, pH 7.5, and tested in triplicate using an EnVisionTM 2103 MultiLabel plate reader (Perkin Elmer; Waltham, MA, USA). The parameters were set as follows: Excitation wavelength=480 nm (30 nm bandwidth) and emission wavelength=535 nm (30 nm bandwidth). Measured data were processed and analysed as previously described.[31] Specifically, the perpendicular intensity (P) and parallel intensity (S) were subtracted by the control values and used for calculations of intensity and anisotropy using the following Equations 1, 2, 3, 4, and 5: (1) I=2PG+S (2) r=S-PG (3) Lb=r-rmin/λrmax-r+r-rmin (4) [drawing 1] (5) y=rmax+rmin-rmax/1+(x/x0)^p
For competition FA assays, the average anisotropy and the average standard deviation of the values derived from equation (2) were calculated and fit to a sigmoidal logistic model (equation (5)) using Origin 2021. […] Results are reported as IC50±SD, with data points representing the mean of three replicates and error bars indicating the corresponding SD. Where applicable, ΔΔG was determined as follows: ΔΔG=−RT ln (ΔIC50).

[2] = circular dichroism (CD) spectroscopy; format: physicochemical; details: 150 mM NaCl, 5 mM MgCl2, pH 7.5, 5 °C, n=2, free‐thiol (red) samples with 5 mol equivalents TCEP; for MRE222 (mean residue ellipticity at 222 nm): 25 mM Tris, mean ± SD, SD; for % Helicity (estimated): from MRE222 by equation 7, 25 mM Tris
Procedure: Circular dichroism (CD): All samples were prepared in Tris buffer (25 mM Tris, 150 mM NaCl, 5 mM MgCl2, pH 7.5) with the exception of free sulfhydryl peptides, to which Tris(2‐carboxyethyl)phosphine (TCEP; 5 mol eq. relative to the peptide) was added. CD spectra were recorded using an APP Chirascan CD spectropolarimeter and 1 mm pathlength quartz cuvettes. Sample concentrations were typically 30–120 μM, as determined by UV−V absorption based on a tryptophan extinction coefficient of 5600 M^−1 cm^−1 and, for mal‐constrained variants, a maleimide coefficient of 1700 M^−1 cm^−1.[16, 32] […] Spectra were recorded in duplicate at 5 °C, over wavelengths ranging from 290 to 180 nm, with data collected every 1 nm (1 nm s^−1). A background spectrum for CD buffer alone was also recorded and background ellipticity values were subtracted from raw sample ellipticity values (θ) when calculating mean residue ellipticities (MREs) using Equation 6: (6) MRE=(θλ-θ0)xMw/nxlxc
Where [θ]λ is the observed ellipticity at a given wavelength λ in mdeg, [θ]0 is the ellipticity observed for the buffer, Mw =molar weight of the peptide in g mol^−1, n=number of residues; c=sample concentration (mg mL^−1); l=pathlength of the cuvette in mm. Estimates of peptide % helicity were made using Equation 7, [33] (7) %helicity=(MRE222-MREcoil)x100/-425001-3/n
where MRE222 is the MRE value at 222 nm, MREcoil=640‐45T (with T in °C)=415 deg cm^2 dmol^−1 res^−1 at 5 °C, and n is the number of backbone amide bonds including the N‐terminal acetyl.

Structure (SMILES)	IC50 ([1]; SD) [µM]	MRE222 (mean residue ellipticity at 222 nm) [2] [deg cm^−1 dmol^−1 res^−1]	% Helicity (estimated) [2] [%]	IC50 [1] [µM]
CSCC[C@@H]1NC(=O)[C@@H](NC(=O)[C@@H](NC(=O)[C@@H](NC(=O)[C@H](Cc2c[nH]c3ccccc23)NC(=O)[C@H](CO)NC(=O)[C@@H]2CCCN2C(=O)[C@@H]2CCCN2C(=O)[C@H](CCC(=O)O)NC(=O)[C@H](CO)NC(=O)[C@H](CO)NC(=O)[C@H](Cc2c[nH]cn2)NC(=O)[C@H](CCC(=O)O)NC(=O)[C@H](C)NC(=O)[C@H](Cc2ccccc2)NC(=O)CNC(=O)[C@H](CCCNC(=N)N)NC(=O)[C@H](CO)NC(=O)[C@@H]2CCCN2C(=O)[C@H](CO)NC(=O)[C@H](CC(C)C)NC(C)=O)C(C)C)[C@@H](C)O)CSSC[C@@H](C(=O)N[C@@H](CC(N)=O)C(=O)N[C@@H](CCC(=O)O)C(=O)N[C@@H](CC(C)C)C(=O)N[C@@H](Cc2c[nH]c3ccccc23)C(=O)NCC(N)=O)NC(=O)[C@H](CC(C)C)NC(=O)[C@H](CC(C)C)NC1=O [N-Myc 61-89 E80C/E84C ox] (Ac-LSPSRGFAEHSSEPPSWVTCMLLCNELWG-NH2; disulfide 20-24)	107 ± 19	-2656 ± 28	8 ± 1	
CSCC[C@H](NC(=O)[C@H](CCC(=O)O)NC(=O)[C@@H](NC(=O)[C@@H](NC(=O)[C@H](Cc1c[nH]c2ccccc12)NC(=O)[C@H](CO)NC(=O)[C@@H]1CCCN1C(=O)[C@@H]1CCCN1C(=O)[C@H](CCC(=O)O)NC(=O)[C@H](CO)NC(=O)[C@H](CO)NC(=O)[C@H](Cc1c[nH]cn1)NC(=O)[C@H](CCC(=O)O)NC(=O)[C@H](C)NC(=O)[C@H](Cc1ccccc1)NC(=O)CNC(=O)[C@H](CCCNC(=N)N)NC(=O)[C@H](CO)NC(=O)[C@@H]1CCCN1C(=O)[C@H](CO)NC(=O)[C@H](CC(C)C)NC(C)=O)C(C)C)[C@@H](C)O)C(=O)N[C@H]1CSSC[C@@H](C(=O)N[C@@H](CC(C)C)C(=O)N[C@@H](Cc2c[nH]c3ccccc23)C(=O)NCC(N)=O)NC(=O)[C@H](CC(N)=O)NC(=O)[C@H](CCC(=O)O)NC(=O)[C@H](CC(C)C)NC1=O [N-Myc 61-89 L82C/E86C ox] (Ac-LSPSRGFAEHSSEPPSWVTEMCLENCLWG-NH2; disulfide 22-26)	219 ± 23	-2630 ± 119	8 ± 1	
CC(=O)N[C@@H](CC(C)C)C(=O)N[C@@H](CO)C(=O)N1CCC[C@H]1C(=O)N[C@@H](CO)C(=O)N[C@@H](CCCNC(=N)N)C(=O)NCC(=O)N[C@@H](Cc1ccccc1)C(=O)N[C@@H](C)C(=O)N[C@@H](CCC(=O)O)C(=O)N[C@@H](Cc1c[nH]cn1)C(=O)N[C@@H](CO)C(=O)N[C@@H](CO)C(=O)N[C@@H](CCC(=O)O)C(=O)N1CCC[C@H]1C(=O)N1CCC[C@H]1C(=O)N[C@@H](CO)C(=O)N[C@@H](Cc1c[nH]c2ccccc12)C(=O)N[C@H](C(=O)N[C@H](C(=O)N[C@@H](CCC(=O)O)C(=O)N[C@H]1CSSC[C@@H](C(=O)N[C@@H](CCC(=O)O)C(=O)N[C@@H](CC(C)C)C(=O)N[C@@H](Cc2c[nH]c3ccccc23)C(=O)NCC(N)=O)NC(=O)[C@H](CCC(=O)O)NC(=O)[C@H](CC(C)C)NC(=O)[C@H](CC(C)C)NC1=O)[C@@H](C)O)C(C)C [N-Myc 61-89 M81C/N85C ox] (Ac-LSPSRGFAEHSSEPPSWVTECLLECELWG-NH2; disulfide 21-25)	92 ± 13	-2894 ± 119	9 ± 1	

Results, then the compound that gave them:

IC50 ([1]; SD) [µM]	MRE222 (mean residue ellipticity at 222 nm) [2] [deg cm^−1 dmol^−1 res^−1]	% Helicity (estimated) [2] [%]	IC50 [1] [µM]	Structure (SMILES)
84 ± 9	-2141 ± 88	7 ± 1		CSCC[C@H](NC(=O)[C@@H]1CSSC[C@H](NC(=O)[C@@H]2CCCN2C(=O)[C@@H]2CCCN2C(=O)[C@H](CCC(=O)O)NC(=O)[C@H](CO)NC(=O)[C@H](CO)NC(=O)[C@H](Cc2c[nH]cn2)NC(=O)[C@H](CCC(=O)O)NC(=O)[C@H](C)NC(=O)[C@H](Cc2ccccc2)NC(=O)CNC(=O)[C@H](CCCNC(=N)N)NC(=O)[C@H](CO)NC(=O)[C@@H]2CCCN2C(=O)[C@H](CO)NC(=O)[C@H](CC(C)C)NC(C)=O)C(=O)N[C@@H](Cc2c[nH]c3ccccc23)C(=O)N[C@@H](C(C)C)C(=O)N[C@@H]([C@@H](C)O)C(=O)N1)C(=O)N[C@@H](CC(C)C)C(=O)N[C@@H](CC(C)C)C(=O)N[C@@H](CCC(=O)O)C(=O)N[C@@H](CC(N)=O)C(=O)N[C@@H](CCC(=O)O)C(=O)N[C@@H](CC(C)C)C(=O)N[C@@H](Cc1c[nH]c2ccccc12)C(=O)NCC(N)=O [N-Myc 61-89 S76C/E80 ox] (Ac-LSPSRGFAEHSSEPPCWVTCMLLENELWG-NH2; disulfide 16-20)
152 ± 15	-1907 ± 23	6 ± 1		CSCC[C@H](NC(=O)[C@H](CCC(=O)O)NC(=O)[C@H](CS)NC(=O)[C@@H](NC(=O)[C@H](Cc1c[nH]c2ccccc12)NC(=O)[C@H](CO)NC(=O)[C@@H]1CCCN1C(=O)[C@@H]1CCCN1C(=O)[C@H](CCC(=O)O)NC(=O)[C@H](CO)NC(=O)[C@H](CO)NC(=O)[C@H](Cc1c[nH]cn1)NC(=O)[C@H](CCC(=O)O)NC(=O)[C@H](C)NC(=O)[C@H](Cc1ccccc1)NC(=O)CNC(=O)[C@H](CCCNC(=N)N)NC(=O)[C@H](CO)NC(=O)[C@@H]1CCCN1C(=O)[C@H](CO)NC(=O)[C@H](CC(C)C)NC(C)=O)C(C)C)C(=O)N[C@@H](CC(C)C)C(=O)N[C@@H](CS)C(=O)N[C@@H](CCC(=O)O)C(=O)N[C@@H](CC(N)=O)C(=O)N[C@@H](CCC(=O)O)C(=O)N[C@@H](CC(C)C)C(=O)N[C@@H](Cc1c[nH]c2ccccc12)C(=O)NCC(N)=O [N-Myc 61-89 T79C/L83C red] (Ac-LSPSRGFAEHSSEPPSWVCEMLCENELWG-NH2)
	-1767 ± 72	6 ± 1	≥ 500	CSCC[C@@H]1NC(=O)[C@H](CCC(=O)O)NC(=O)[C@H]([C@@H](C)O)NC(=O)[C@@H](NC(=O)[C@H](Cc2c[nH]c3ccccc23)NC(=O)[C@H](CO)NC(=O)[C@@H]2CCCN2C(=O)[C@@H]2CCCN2C(=O)[C@H](CCC(=O)O)NC(=O)[C@H](CO)NC(=O)[C@H](CO)NC(=O)[C@H](Cc2c[nH]cn2)NC(=O)[C@H](CCC(=O)O)NC(=O)[C@H](C)NC(=O)[C@H](Cc2ccccc2)NC(=O)CNC(=O)[C@H](CCCNC(=N)N)NC(=O)[C@H](CO)NC(=O)[C@@H]2CCCN2C(=O)[C@H](CO)NC(=O)[C@H](CC(C)C)NC(C)=O)CSC2=C(SC[C@@H](C(=O)N[C@@H](CC(C)C)C(=O)N[C@@H](CCC(=O)O)C(=O)N[C@@H](CC(N)=O)C(=O)N[C@@H](CCC(=O)O)C(=O)N[C@@H](CC(C)C)C(=O)N[C@@H](Cc3c[nH]c4ccccc34)C(=O)NCC(N)=O)NC1=O)C(=O)NC2=O [N-Myc 61-89 V78C/L82C mal] (Ac-LSPSRGFAEHSSEPPSWCTEMCLENELWG-NH2; linker 18-22 via Maleimide(3,4-diyl))
